According to patent US20240270821A1, “GIP/GLP1/GCG TRI-RECEPTOR AGONISTS AND USES THEREOF” (priority 2023, published 2024):
Starred links: 1 amine or outer side, 2 acyl side, 3 side chain; linkers in the order of their positions; H or OH if unused. Non-standard residues stand in square brackets, D forms with d. Groups on a side chain read outwards from the residue. No end group written: not given here. *: point of attachment. C18 diacid = O=C(O)CCCCCCCCCCCCCCCCC(=O)*; γGlu = O=C(O)[C@H](CCC(=O)[*:2])N[*:1]; αMe4Pal = C[C@](N)(Cc1ccncc1)C(=O)O; αMeY = C[C@](N)(Cc1ccc(O)cc1)C(=O)O; αMeF = C[C@](N)(Cc1ccccc1)C(=O)O; 4Pal = N[C@@H](Cc1ccncc1)C(=O)O; αMeL = CC(C)C[C@](C)(N)C(=O)O; αMeS = C[C@](N)(CO)C(=O)O; Iva = CC[C@](C)(N)C(=O)O; Orn = NCCC[C@H](N)C(=O)O; AEEA = NCCOCCOCC(=O)O; Aib = CC(C)(N)C(=O)O

How the values were obtained:
Type in all cases: cell-based
hGIPR [1] = biological target: T1, hGIPR (Homo sapiens, UniProt P48546); test: Functional cAMP activation in the presence of 0.1% casein (no HSA); details: in the presence of 0.1% casein (no HSA); geometric mean; read-out: Relative cAMP EC50, hGIPR;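 further: intracellular cAMP rise after 30 min at 37 °C read by HTRF against a standard curve, scaled between buffer alone (0%) and top control ligand concentration (100%), four-parameter fit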
T1 sequence (P48546 22-466): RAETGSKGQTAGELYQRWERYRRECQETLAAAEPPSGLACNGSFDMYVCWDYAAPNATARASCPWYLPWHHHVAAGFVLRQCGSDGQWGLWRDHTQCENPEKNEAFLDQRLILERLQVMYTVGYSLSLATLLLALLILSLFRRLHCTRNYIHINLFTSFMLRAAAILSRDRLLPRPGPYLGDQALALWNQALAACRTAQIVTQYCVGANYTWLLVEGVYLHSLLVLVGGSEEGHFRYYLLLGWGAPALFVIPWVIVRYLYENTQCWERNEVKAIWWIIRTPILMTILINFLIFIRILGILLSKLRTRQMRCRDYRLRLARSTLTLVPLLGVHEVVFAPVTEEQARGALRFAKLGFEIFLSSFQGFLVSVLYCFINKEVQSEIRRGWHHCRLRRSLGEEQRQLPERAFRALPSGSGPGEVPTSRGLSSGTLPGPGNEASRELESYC

hGLP-1R [2] = biological target: T2, hGLP-1R (Homo sapiens, UniProt P43220); test: as above; details: in the presence of 0.1% casein (no HSA); geometric mean; read-out: Relative cAMP EC50, hGLP-1R;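 further: intracellular cAMP rise after 30 min at 37 °C read by HTRF, normalized between buffer only (0%) and maximal control ligand (100%), four-parameter variable-slope fit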
hGcgR = hGcgR (Homo sapiens, UniProt P47871); test: as above; details: in the presence of 0.1% casein (no HSA); geometric mean; read-out: Relative cAMP EC50, hGcgR;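 further: intracellular cAMP rise after 30 min at 37 °C, read by HTRF against a cAMP standard curve, scaled from buffer only (0%) to maximal control ligand response (100%)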
human GcgR = human GcgR (Homo sapiens, UniProt P47871); test: Functional cAMP activity in the presence of 1% HSA; details: read-out: cAMP Rel EC50, hGcgR
hGLP-1R [3] = biological target: T2, hGLP-1R; test: Functional cAMP activity in the presence of 1% HSA; details: read-out: cAMP Rel EC50, hGLP-1R
hGIPR [4] = biological target: T1, hGIPR; test: Functional cAMP activity in the presence of 1% HSA; details: read-out: cAMP Rel EC50, hGIPR

Sequence of hGcgR (P47871 26-477): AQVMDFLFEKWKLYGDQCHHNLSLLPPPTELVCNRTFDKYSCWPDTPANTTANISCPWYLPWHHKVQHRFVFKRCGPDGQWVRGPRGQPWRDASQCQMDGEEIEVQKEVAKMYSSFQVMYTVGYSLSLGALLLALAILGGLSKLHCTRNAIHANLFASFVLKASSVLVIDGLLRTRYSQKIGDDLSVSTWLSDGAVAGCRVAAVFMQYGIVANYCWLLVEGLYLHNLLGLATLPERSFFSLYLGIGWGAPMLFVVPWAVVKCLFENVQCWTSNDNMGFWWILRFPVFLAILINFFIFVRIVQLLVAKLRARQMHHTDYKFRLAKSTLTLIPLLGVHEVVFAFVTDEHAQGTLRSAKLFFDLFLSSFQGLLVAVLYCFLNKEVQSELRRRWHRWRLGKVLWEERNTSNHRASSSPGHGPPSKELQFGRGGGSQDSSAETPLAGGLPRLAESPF
Sequence of human GcgR (P47871 26-477): as above
T2 sequence (P43220 24-463): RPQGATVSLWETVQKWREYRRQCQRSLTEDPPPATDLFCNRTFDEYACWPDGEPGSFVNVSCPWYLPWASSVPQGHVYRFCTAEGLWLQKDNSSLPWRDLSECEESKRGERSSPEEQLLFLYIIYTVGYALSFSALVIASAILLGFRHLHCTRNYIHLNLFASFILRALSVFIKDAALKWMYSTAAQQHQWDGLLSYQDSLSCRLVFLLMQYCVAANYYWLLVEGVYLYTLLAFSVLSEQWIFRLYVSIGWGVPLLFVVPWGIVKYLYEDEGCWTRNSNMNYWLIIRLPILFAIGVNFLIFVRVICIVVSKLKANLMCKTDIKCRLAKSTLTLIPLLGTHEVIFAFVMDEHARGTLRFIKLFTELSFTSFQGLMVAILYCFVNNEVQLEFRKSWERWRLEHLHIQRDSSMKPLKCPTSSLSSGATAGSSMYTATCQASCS

Substance | EC50 (hGIPR [1]) | EC50 (hGLP-1R [2]) | EC50 (hGcgR) | EC50 (human GcgR) | EC50 (hGLP-1R [3]) | EC50 (hGIPR [4])
Y[Aib]QGTFTSD[4Pal]SQ[αMeL]LD[Orn]K([AEEA-γGlu-C18 diacid])AQ[αMe4Pal]QFIE[αMeY]LIE[Aib]GPSSGEPPPSGSEE-NH2 [Example 1098] | 0.201 nM | 1.22 nM | 6.2 nM | 994 nM | 184 nM | 31.2 nM
Y[Aib]QGTFTSD[4Pal]SQ[αMeL]LD[Orn]K([AEEA-γGlu-γGlu-C18 diacid])AQ[αMe4Pal]AFIEYLIE[dA]GPSSGAPPPSGS-NH2 [Example 1016] | 0.218 nM | 1.55 nM | 5.57 nM | 626 nM | 156 nM | 30.6 nM
Y[Aib]QGTFTSD[4Pal]SQ[αMeL]LD[Orn]K([dE-γGlu-C18 diacid])AQ[αMe4Pal]AFIEYLIA[Aib]GPSSGEPPPSGSEE-NH2 [Example 1101] | 0.0592 nM | 1.75 nM | 4.72 nM | 827 nM | 246 nM | 6.31 nM
Y[Aib]QGTFTSD[4Pal]SQ[αMeL]LD[Orn]K([dE-γGlu-C18 diacid])AQ[αMe4Pal]AFIQ[αMeY]LLEGGPSSGAPPPSGSEEE-NH2 [Example 1083] | 0.328 nM | 7.76 nM | 15 nM | 1030 nM | 547 nM | 20.5 nM
Y[Aib]QGTFTSD[4Pal]SQ[αMeL]LD[Orn]K([dE-γGlu-C18 diacid])AQ[αMe4Pal]QFIE[αMeY]LIAGGPSSGAPPPSGSEEE-NH2 [Example 1081] | 0.105 nM | 1.29 nM | 19.7 nM | 2130 nM | 151 nM | 8.44 nM
Y[Aib]QGTFTSD[4Pal]SQ[αMeL]LD[Orn]K([dE-γGlu-C18 diacid])AQ[αMe4Pal]QFIE[αMeY]LIA[Aib]GPSSGEPPPSGSEE-NH2 [Example 1106] | 0.0312 nM | 0.87 nM | 7.71 nM | 1030 nM | 119 nM | 4.23 nM
Y[Aib]QGTFTSD[4Pal]SQ[αMeL]LD[Orn]K([γGlu-γGlu-C18 diacid])AQ[αMe4Pal]AFIEYLIAGGPSSGAPPPSGSEE-NH2 [Example 1031] | 0.146 nM | 1.15 nM | 6.98 nM | 1200 nM | 152 nM | 17.3 nM
Y[Aib]QGTFTSD[4Pal]SQ[αMeL]LD[Orn]K([γGlu-γGlu-C18 diacid])AQ[αMe4Pal]AFIEYLIE[Aib]GPSSGAPPPSGS-NH2 [Example 935] | 0.123 nM | 1.71 nM | 4.04 nM | 659 nM | 172 nM | 16.9 nM
Y[Aib]QGTFTSD[4Pal]SR[αMeL]LDKK([AEEA-γGlu-C18 diacid])AQ[αMe4Pal]AFIEYLIEGGESSGAPPPSGS-NH2 [Example 792] | 0.55 nM | 2.99 nM | 1.91 nM | 376 nM | 619 nM | 108 nM
Y[Aib]QGTFTSD[4Pal]SR[αMeL]LDKK([AEEA-γGlu-C18 diacid])AQ[αMe4Pal]AFIE[αMe4Pal]LIEGGPSSGAPPPSGS-NH2 [Example 950] | 0.18 nM | 2.5 nM | 1.92 nM | 327 nM | 328 nM | 18.1 nM
Y[Aib]QGTFTSD[4Pal]SR[αMeL]LDKK([AEEA-γGlu-C18 diacid])AQ[αMe4Pal]AFIE[αMeY]LIEGGPSSGAPPPSGS-NH2 [Example 843] | 0.334 nM | 0.874 nM | 3.41 nM | 367 nM | 135 nM | 32.8 nM
Y[Aib]QGTFTSD[4Pal]SR[αMeL]LDKK([γGlu-γGlu-C18 diacid])AQ[αMe4Pal]AFIE[αMe4Pal]LIEGGPSSGAPPPSGSEE-NH2 [Example 959] | 0.217 nM | 5.06 nM | 2.61 nM | 316 nM | 503 nM | 24.5 nM
Y[Aib]QGTFTSD[4Pal]S[Orn][αMeL]LDKK([γGlu-γGlu-C18 diacid])AQ[Aib]AFIE[αMeY]LLEGGPSSGAPPPSGSEE-NH2 [Example 944] | 0.216 nM | 4.86 nM | 6.16 nM | 1840 nM | 985 nM | 37.2 nM
Y[Aib]QGTFTSD[4Pal]S[Orn][αMeL]LDKK([γGlu-γGlu-C18 diacid])AQ[αMe4Pal]AFIE[αMe4Pal]LIE[Aib]GPSSGEPPPSGS-NH2 [Example 989] | 0.103 nM | 3.92 nM | 2.27 nM | 247 nM | 402 nM | 8 nM
Y[Aib]QGTFTSD[4Pal]S[Orn][αMeL]LD[Orn]K([AEEA-γGlu-C18 diacid])AQ[Aib]AFIE[αMeY]LLEGGPSSGAPPPSGS-NH2 [Example 933] | 0.259 nM | 2.32 nM | 5.51 nM | 1530 nM | 557 nM | 35.1 nM
Y[Aib]QGTFTSD[4Pal]S[Orn][αMeL]LD[Orn]K([γGlu-γGlu-C18 diacid])AQ[αMe4Pal]AFIEYLIAGGPSSGAPPPSGSE-NH2 [Example 1011] | 0.21 nM | 2.13 nM | 5.27 nM | 459 nM | 148 nM | 13.5 nM
Y[Aib]QGTFTSD[4Pal]S[Orn][αMeL]LD[Orn]K([γGlu-γGlu-C18 diacid])AQ[αMe4Pal]QFIE[αMeY]LIEGGPSSGAPPPSGSEE-NH2 [Example 972] | 0.34 nM | 2.05 nM | 4.19 nM | 660 nM | 327 nM | 30.4 nM
Y[Aib]QGTFTSD[4Pal][αMeS]Q[αMeL]LD[Orn]K([dE-γGlu-C18 diacid])AQ[Iva]QFIQ[αMeY]LLE[Aib]GPSSGAPPPSGGGE-NH2 [Example 1139] | 0.0431 nM | 1.85 nM | 5.29 nM | 269 nM | 155 nM | 2.87 nM
Y[Aib]QGTFTSD[4Pal][αMeS]Q[αMeL]LD[Orn]K([dE-γGlu-C18 diacid])AQ[αMe4Pal]QFIQ[αMeY]LIEGGPSSGEPPPSGGGE-NH2 [Example 1188] | 0.0914 nM | 1.01 nM | 1.16 nM | 130 nM | 77.1 nM | 7.02 nM
Y[Aib]QGT[αMeF]TSD[4Pal][αMeS]I[αMeL]LD[Orn]K([AEEA-γGlu-C18 diacid])AQ[αMe4Pal]EFI[dE][αMeY]LIEGGPSSGAPPPSGGGE-NH2 [Example 1168] | 0.00839 nM | 0.422 nM | 2.63 nM | 364 nM | 65.4 nM | 0.999 nM
Y[Aib]QGT[αMeF]TSD[4Pal][αMeS]I[αMeL]LD[Orn]K([AEEA-γGlu-C18 diacid])AQ[αMe4Pal]EFI[dE][αMeY]LIEGGPSSGEPPPSGE-NH2 [Example 1165] | 0.0121 nM | 0.632 nM | 2.68 nM | 358 nM | 87.7 nM | 1.36 nM
Y[Aib]QGT[αMeF]TSD[4Pal][αMeS]I[αMeL]LD[Orn]K([AEEA-γGlu-C18 diacid])AQ[αMe4Pal]EFI[dE][αMeY]LIEGGPSSGEPPPSGGGE-NH2 [Example 1169] | 0.011 nM | 0.613 nM | 2.43 nM | 304 nM | 80 nM | 1.18 nM
